The values below come from PubChem BioAssay (NCI).

Test in all cases: inhibition of tumour cell growth, NCI panel, 48 h
For test [1], the system named is A549 NSCLC.
Test [2] relates to SK-MEL-28 melanoma.
For test [3], the system named is UACC-257 melanoma.
In test [4] the test system is KM12 colon.
In test [5] the test system is NCI/ADR-RES ovarian.
Test [6] has as its system RPMI-8226 leukemia.
Test [7] concerns K-562 leukemia.
The subject of test [8] is NCI-H460 lung.
Test [9] relates to RXF 393 renal.
The subject of test [10] is T-47D breast.
The subject of test [11] is MDA-N.

Each structure is given as a SMILES string.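 Results reflect a 48-hour exposure of cells in 96-well plates to compound at five concentrations. At the GI50, growth is halved. TGI is the concentration that stops growth completely.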

Turning to `COc1cccc2c1C(=O)c1c(O)c3c(c(O)c1C2=O)CC(O)(C(C)=O)CC3O` (stereo not drawn), the TGI in test [1] was 23.4 µM; in test [2], 44.3 µM; in test [3], 32.7 µM; in test [4] it was 38.5 µM; in [5], 22.4 µM; in [6], 16.6 µM. Also, the TGI in test [7] worked out at 39.3 µM; in test [8] it was 7.42 µM; in test [9], 18.5 µM.

On to `Nc1ccn(CCCC(c2ccccc2)P(=O)(O)O)c(=O)n1` (stereo not drawn), for which the TGI in test [1], in test [2], in [3], in test [4], in test [6] and in test [7] was > 100 µM in each case. The TGI in test [8] was > 100 µM.

Regarding `Cc1ccc(Cc2n[nH]c(=O)n2N2C(=O)c3ccccc3C2=O)cc1`, the TGI in [1], in test [2], in [3], in test [4], in [5] and in test [10] was > 100 µM throughout. Besides, the TGI in test [7], in [8] and in test [11] was > 100 µM throughout.

Consider `COc1ccc(C=NCCCN=Cc2ccc(OC)cc2O)c(O)c1`, for which the TGI in [1], in [2], in [3], in test [4], in [6] and in test [7] was > 100 µM throughout. The TGI in test [8] and in test [9] was > 100 µM each time.

For the molecule `O=c1[nH]c(-c2ccc(Cl)cc2)cc2ccsc12`, the TGI in test [1] was > 100 µM; in [2] it was > 100 µM; in [3], 7.87 µM; in [4], > 100 µM; in test [5] it was > 100 µM; in test [6], 19.1 µM. Besides, the TGI in [10] is 59.9 µM; in test [7], > 100 µM; in [8], > 100 µM; in test [9] it was > 100 µM.

As to `CNC(=O)c1cc(Oc2cccc3nc(NC(=O)Nc4ccc(F)cc4F)ccc23)ccn1`, the GI50 in test [2] was 1.42 µM; in test [5], 1.6 µM; in test [6], 2.2 µM; in test [9], 1.24 µM. Further, the TGI in test [2] was > 50 µM; in test [5], > 50 µM; in test [6], > 50 µM; in [9], 2.99 µM.

As to `c1ccc(Sc2nc(Sc3ccccc3)nc(Sc3ccccc3)n2)cc1`, the TGI in [1] is > 100 µM; in test [2], > 100 µM; in [3], > 100 µM; in [4] it was 29.4 µM; in test [6], > 100 µM; in test [10], 45 µM. The TGI in test [7], in [8] and in [9] was > 100 µM in each case.

Consider `O=C1C(=Cc2ccc([N+](=O)[O-])o2)C(=O)N(CCc2ccccc2)S(=O)(=O)N1CCc1ccccc1`, for which the TGI is > 100 µM in test [1]; 28 µM in [2]; > 100 µM in [3]; > 100 µM in test [4]; > 100 µM in [6]; > 100 µM in test [7]. Also, the figures for the TGI in test [8] and in [9] were > 100 µM and 34.1 µM, respectively.

On to `C[C@]12CCC(=O)C=C1CC[C@@H]1C2CC[C@@]2(C)C1CC[C@@H]2OC(=O)C12OC1CCC2=O` (stereo partly drawn), for which the TGI was found to be 54.6 µM in test [1]; 31.6 µM in test [2]; 35.9 µM in test [3]; 35 µM in test [4]; 52.1 µM in [6]; 59.4 µM in [7]. Besides, the values for the TGI in test [8] and in test [9] were 31.8 µM and 16.8 µM, respectively.

Turning to `CN1C(=O)[C@@H]2[C@@H]3c4ccccc4N[C@@H]3c3[nH]c4ccccc4c3[C@@H]2C1=O`, the TGI in test [1] is 65.1 µM; in test [2], 67.9 µM; in test [3], 48.9 µM; in test [5], 52 µM; in [6] it was 47 µM; in test [7] it was 74.7 µM. Besides, the TGI in test [8] is 31.4 µM; in [11], > 100 µM; in test [9], 64.4 µM.

As for `O=C1NC2OC(CO)C(O)C(O)C2O1` (stereo not drawn), the TGI in test [1], in [2], in test [3], in test [4], in test [7] and in test [8] was > 100 µM in each case.

With `COc1ccc(OC)c(-c2cc(=O)c3cc4c(cc3[nH]2)OCO4)c1`, the TGI was > 71.3 µM in [1]; > 100 µM in test [2]; > 100 µM in test [3]; > 46 µM in [4]; > 46.6 µM in test [6]; > 100 µM in test [7]. Also, the values for the TGI in test [8] and in test [9] were > 37.2 µM and 16.5 µM, respectively.

Turning to `CCOC(=O)C1=C(O)c2ccc(OC)cc2C(=O)C1=O`, the TGI in [1], in [2], in [3], in [4], in test [6] and in [7] was > 100 µM throughout. Also, the TGI in [8] and in [9] was > 100 µM in each case.

With `CCC1OC2C(CC=C(C)C)=C3OC(C)(O)C(C)(CC)C(=O)C3=C3OC(=O)C=C1C32` (stereo not drawn), the TGI in test [1] is > 100 µM; in [2], > 100 µM; in [3] it was 96.2 µM; in [4], > 100 µM; in test [5] it was 95.8 µM; in [6], > 100 µM. The figures for the TGI in test [10], in test [7] and in test [8] were > 100 µM, 86.8 µM and 92.5 µM, respectively.

As to `O=c1cc(NNc2cccc(F)c2)[nH]c(=S)[nH]1`, the TGI in test [1], in test [2], in test [3], in [4], in test [5] and in test [6] was > 100 µM throughout. In addition, the TGI in test [7], in test [8] and in [11] was > 100 µM throughout.

For the molecule `O=C(NCCC1CN(S(=O)(=O)C(F)(F)F)c2ccccc21)OCc1ccccc1` (stereo not drawn), the TGI in test [1], in test [2], in test [3], in [4], in test [5] and in test [6] was > 100 µM each time. For the same molecule, the TGI in [7], in test [8] and in test [9] was > 100 µM each time.

In the case of `O=P(Nc1cccc(Cl)c1)(Oc1ccccc1)N(CCCl)CCCl` (stereo not drawn), the TGI in test [1] is 29.2 µM; in [2], 30.5 µM; in test [3], 27.2 µM; in test [4], 28.6 µM; in [7], > 100 µM.

For the molecule `Brc1ccc(C[N+]23CN4CN(CN(C4)C2)C3)cc1`, the TGI was > 100 µM in test [1]; > 100 µM in [2]; > 100 µM in [3]; > 100 µM in test [4]; 59.5 µM in test [6]; > 100 µM in test [7]. For the same molecule, the TGI was > 100 µM in test [8] and 34.6 µM in [9].

For `O=C(CSc1nnc(-c2ccc(N=Cc3ccc(Cl)cc3)cc2)o1)Nc1cccc([N+](=O)[O-])c1`, the TGI in test [1], in [2], in [3], in [4], in test [6] and in test [7] was > 100 µM in each case. For the same molecule, the TGI in [8] and in test [9] was > 100 µM in each case.

Regarding `CON(C(=O)OC(C)(C)C)c1ccccc1`, the TGI in [1], in test [2], in test [3], in [4], in test [5] and in [6] was > 100 µM each time. For the same molecule, the TGI in test [10], in [7], in [8] and in test [9] was > 100 µM throughout.

On to `COc1ccc(Oc2nc3c(N)cc(C(F)(F)F)cc3nc2-c2ccccc2)cc1`, for which the TGI is > 100 µM in test [2]; > 100 µM in test [3]; 31.6 µM in test [4]; > 100 µM in test [5]; > 100 µM in [6]; 26.9 µM in test [10]. The TGI is > 100 µM in [7], 57.8 µM in [8] and 24.9 µM in test [9].

In the case of `COc1ccc(/C=C(\C2=NC(=O)CS2)c2nc3ccccc3[nH]2)cc1`, the TGI in [1], in test [2], in [3], in test [4], in test [6] and in test [7] was > 100 µM throughout. For the same molecule, the TGI in [8] is > 100 µM; in test [9] it was 6.81 µM.

Take `N#Cc1c(O)c(C=O)c(=O)n2c1[nH]c1ccccc12`: the TGI in test [1], in test [2], in [3], in [4], in test [5] and in [6] was > 100 µM throughout. Moreover, the TGI in [7], in test [8], in [11] and in test [9] was > 100 µM throughout.

Turning to `COc1c(C)c(C/C=C(\C)CCCCO)c(OC)c2ccccc12`, the TGI in [1] was > 100 µM; in test [3] it was > 100 µM; in [4], 54.9 µM; in test [5], > 100 µM; in test [6], > 100 µM; in test [7], 67.1 µM. Further, the values for the TGI in test [8], in [11] and in test [9] were 37.8 µM, > 100 µM and > 100 µM, respectively.

For `O=[N+]([O-])c1ccc2c(N=Nc3ccc4ccccc4c3O)c(O)cc(S(=O)(=O)O)c2c1`, the TGI in test [1] is > 100 µM; in test [2], > 100 µM; in test [3], > 100 µM; in test [4] it was > 100 µM; in [5] it was > 90.3 µM; in [6] it was 61.5 µM. The TGI in [10] is > 100 µM; in [7], > 95.1 µM; in test [8] it was > 100 µM; in test [9] it was > 100 µM.

On to `COc1ccc(N2C(=O)C3C=CC(n4[nH]c(=O)n(Cc5ccccc5)c4=O)CC3C2=O)cc1` (stereo not drawn), for which the TGI in test [1], in test [2], in test [3], in [4], in test [6] and in test [7] was > 100 µM in each case. Moreover, the TGI in test [8] and in [9] was > 100 µM in each case.

`CCSc1[nH]c(NC(=NC(C)C)NC(=O)c2ccccc2)c(C(N)=O)c1C(N)=O`: the TGI in test [1], in test [2], in test [3], in test [4], in test [6] and in test [10] was > 10 µM throughout. In addition, the TGI in test [7], in [11] and in [9] was > 10 µM in each case.

Take `CN1CCN(Cn2nc(-c3cc(F)c(Cl)cc3Cl)oc2=S)CC1`: the GI50 is 28.6 µM in [2]; 42.7 µM in [4]; 83.6 µM in [5]; 22.7 µM in [6]; 41.4 µM in test [7]; 41.2 µM in test [8]. In [9], the GI50 is 32.5 µM. Further, the TGI in test [2] was > 100 µM; in test [4], > 100 µM; in [5], > 100 µM; in [6], 50.9 µM; in test [10], 27 µM; in [7], > 100 µM. Also, the TGI was > 100 µM in test [8] and 93.8 µM in test [9].

Turning to `Cc1csc2c(=O)n(COCc3ccccc3)c(=O)[nH]c12`, the TGI in [1], in test [2], in test [3], in [4], in test [5] and in test [6] was > 100 µM in each case. The TGI in test [7], in test [8], in [11] and in test [9] was > 100 µM in each case.

For `Cc1ccc(O)cc1` (tested in a mixture with another compound), the TGI in test [1], in test [2], in test [3], in [4], in test [5] and in test [6] was > 100 µM each time. Also, the TGI in test [10], in test [7], in test [8] and in [9] was > 100 µM each time.
